Source: US20140350014A1, “COMPOUNDS FOR INHIBITING THE INTERACTION OF BCL2 WITH BINDING PARTNERS” (NOVARTIS AG, priority 2011, published 2014)

Experiments:
[1] = target: BCL-2 binding to BAD peptide (Homo sapiens, UniProt P10415); assay: BCL2 SPR solution inhibition assay, BAD peptide surface (Biacore A100); details: read-out: BCL2_SPR IC50 BAD
From the text: (§1) 33The present method includes utility of a Surface plasmon resonance (SPR)-based biosensor (Bia34core™′ GE Healthcare, Uppsala, Sweden) to characterize BCL-2 inhibitors. 35
(§2) 36Biacore™ utilizes the phenomenon of surface plasmon resonance (SPR) to detect and measure 37binding interactions. In a typical Biacore experiment, one of the interacting molecules (ligand) is i38mmobilized on a flexible dextran matrix while the interacting partner (analyte) is allowed to fl39ow across that surface. A binding interaction results in an increase in mass on the sensor surface 40and a corresponding direct change in the refractive index of the medium in the vicinity of the 41sensor surface. Changes in refractive index or signal are recorded in resonance units (R.U.) Signal 42changes due to association and dissociation of complexes are monitored in a non-invasive manne43r, continuously and in real-time, the results of which are reported in the form of a sensorgram.44
(§3) The SPR assay is con45figured to examine solution inhibition of BCL-2 binding to peptide derivatized sensor surfa46ces to generate IC50 values as a measure of inhibitor potency.
(§4) Biacore™ A100 (GE Healthcare, Uppsala, Sweden) was used to conduct all experiments reported herein. Sensor surface preparation and all interaction analyses experiments were performed at 25° C. Reagents were purchased from GE Healthcare. Running buffer containing 10 mM Hepes, pH7.4, 150 mM sodium chloride, 1.25 mM Dithiothreitol, 3% Dimethyl sulfoxide and 0.05% polysorbate 20 were utilized throughout all analyses.
(§5) Biotinylated BAK, BAD and NOXA peptides were diluted to 10 nM in running buffer and captured onto a sensor surface pre-derivatized with streptavidin (sensor chip SA) to peptide surface densities in the range 50-100 R.U. Peptide captured surfaces were blocked with 500 μM PEO2-Biotin.
(§6) Interaction analyses were performed by first equilibrating each sample within a 6 point three fold compound dilution series in the range 16 μM to […] with 56 nM BCL-2 for one hour during instrument start-up procedures. Protein compound mixtures were then injected over each peptide surface in parallel for 60 seconds at a flow-rate of 30 μL/min. 56 nM BCL-2 control samples were also prepared and run at regular intervals during the assay. Surface regeneration was performed at the end of each analysis cycle by two 30 second injections of 10 mM Glycine, pH 2.5, 1M Sodium Chloride, 0.05% polysorbate 20. Samples and control compound samples were run in duplicate and controls are also run at regular intervals during the assay to monitor surface and assay performance.
(§7) Data analyses are carried out using Biacore™ A100 evaluation software v1.1 to validate assay quality. Binding level report points were used relative to BCL-2 control samples to calculate % inhibition values for each compound protein mixture. […] The range of data shown in table 1 represents the high and low IC50 values obtained from multiple experiments.

[2] = target: BCL-2 binding to BAK peptide (Homo sapiens, UniProt P10415); assay: BCL2 SPR solution inhibition assay, BAK peptide surface (Biacore A100); details: read-out: BCL2_SPR IC50 BAK
From the text: as §1, §2, §3, §4, §5, §6, §7

Sequence of BCL-2 binding to BAD peptide (P10415 whole entry): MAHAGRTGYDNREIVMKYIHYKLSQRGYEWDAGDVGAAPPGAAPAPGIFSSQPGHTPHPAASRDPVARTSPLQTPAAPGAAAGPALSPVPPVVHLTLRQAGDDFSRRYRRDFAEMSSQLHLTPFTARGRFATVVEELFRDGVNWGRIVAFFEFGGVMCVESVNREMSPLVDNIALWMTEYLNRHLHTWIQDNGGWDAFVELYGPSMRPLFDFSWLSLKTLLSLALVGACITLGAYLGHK
Sequence of BCL-2 binding to BAK peptide (P10415 whole entry): as above

Row | Compound | IC50 [1] [µM] | IC50 [2] [µM]
1 | CCCCN(CCCC)C(=O)c1cc(C)n(-c2ccc(N3CCOCC3)cc2C(=O)N2Cc3ccccc3C[C@H]2CO)n1 [Example 1, (S)—N,N-dibutyl-1-(2-(3-(hydroxymethyl)-1,2,3,4-tetrahydroisoquinoline-2-carbonyl)-4-morpholinophenyl)-5-methyl-1H-pyrazole-3-carboxamide] | 1.4 to 1.52 | 0.725 to 0.86
2 | CCCCN(CCCC)C(=O)c1cc(C)n(-c2ccc(N3CCN(Cc4ccc(Cl)cc4)C(=O)C3)cc2C(=O)N2Cc3ccccc3C[C@H]2CO)n1 [Example 3, (S)—N,N-dibutyl-1-(4-(4-(4-chlorobenzyl)-3-oxopiperazin-1-yl)-2-(3-(hydroxymethyl)-1,2,3,4-tetrahydroisoquinoline-2-carbonyl)phenyl)-5-methyl-1H-pyrazole-3-carboxamide] | 0.474 to 0.506 | 0.512 to 0.515
3 | CCCCN(CCCC)C(=O)c1nn(-c2ccc(-c3cccnc3)cc2C(=O)N2Cc3ccccc3C[C@H]2CO)c(C)c1Cl [Example 5] | 0.218 to 0.236 | 0.253 to 0.262
4 | CCCCN(CCCC)C(=O)c1nn(-c2ccc(-c3ccc(N)nc3)cc2C(=O)N2Cc3ccccc3C[C@H]2CO)c(C)c1Cl [Example 6] | 0.231 to 0.288 | 0.21 to 0.252
5 | CCCCN(CCCC)C(=O)c1nn(-c2ccc(-c3cc[nH]n3)cc2C(=O)N2Cc3ccccc3C[C@H]2CO)c(C)c1Cl [Example 7] | 0.739 to 0.77 | 0.609 to 0.613
6 | CCCCN(CCCC)C(=O)c1nn(-c2ccc(-c3ccc(OC)nc3)cc2C(=O)N2Cc3ccccc3C[C@H]2CO)c(C)c1Cl [Example 10] | 0.843 to 0.958 | 0.79 to 0.906
7 | CCCCN(CCCC)C(=O)c1nn(-c2ccc(-c3ccccc3)cc2C(=O)N2Cc3ccccc3C[C@H]2CO)c(C)c1Cl [Example 11] | 1.48 to 1.58 | 1.4 to 1.49
8 | CCCCN(CCCC)C(=O)c1cc(C)n(-c2ccc(N3CCN(c4ccccc4)CC3)cc2C(=O)N2Cc3ccccc3C[C@H]2CO)n1 [Example 15] | 0.668 to 0.77 | 0.552 to 0.713
9 | CCCCN(CCCC)C(=O)c1cc(C)n(-c2ccc(N3CCN(C(=O)OC(C)(C)C)CC3=O)cc2C(=O)N2Cc3ccccc3C[C@H]2CO)n1 [Example 16] | 2.02 to 2.21 | 1.34 to 1.45
10 | CCCCN(CCCC)C(=O)c1cc(C)n(-c2ccc(N3CCN(C)CC3)cc2C(=O)N2Cc3ccccc3C[C@H]2CO)n1 [Example 17] | 2.64 to 3.05 | 1.57 to 1.64
11 | CCCCN(CCCC)C(=O)c1cc(C)n(-c2ccc(N3CCCCC3)cc2C(=O)N2Cc3ccccc3C[C@H]2CO)n1 [Example 18] | 2.36 to 2.74 | 1.65 to 1.93
12 | CCCCN(CCCC)C(=O)c1cc(C)n(-c2ccc(N3CCOCC3=O)cc2C(=O)N2Cc3ccccc3C[C@H]2CO)n1 [Example 19] | 11.2 to 12.2 | 6.06 to 6.6
13 | CCCCN(CCCC)C(=O)c1cc(C)n(-c2ccc(N3CCN(Cc4cccc(Cl)c4)C(=O)C3)cc2C(=O)N2Cc3ccccc3C[C@H]2CO)n1 [Example 23] | 0.162 | 0.148 to 0.155
14 | CCCCN(CCCC)C(=O)c1cc(C)n(-c2ccc(-c3ccccc3F)cc2C(=O)N2Cc3ccccc3C[C@H]2CO)n1 [Example 24] | 3.01 to 3.41 | 3.36 to 4.63
15 | CCCCN(CCCC)C(=O)c1cc(C)n(-c2ccc(-c3ccc(C(=O)N4CCCC4)c(F)c3)cc2C(=O)N2Cc3ccccc3C[C@H]2CO)n1 [Example 25] | 0.223 to 0.224 | 0.159 to 0.171
16 | CCCCN(CCCC)C(=O)c1cc(C)n(-c2ccc(-c3ccc(S(=O)(=O)N4CCCCC4)cc3)cc2C(=O)N2Cc3ccccc3C[C@H]2CO)n1 [Example 26] | 0.584 to 0.672 | 0.437 to 0.484
17 | CCCCN(CCCC)C(=O)c1cc(C)n(-c2ccc(-c3ccc(OC)c(C)c3)cc2C(=O)N2Cc3ccccc3C[C@H]2CO)n1 [Example 29] | 0.767 to 0.82 | 0.563 to 0.621
18 | CCCCN(CCCC)C(=O)c1cc(C)n(-c2ccc(-c3ccc(OC)c(Cl)c3)cc2C(=O)N2Cc3ccccc3C[C@H]2CO)n1 [Example 30] | 0.651 to 0.676 | 0.51 to 0.591
19 | CCCCN(CCCC)C(=O)c1cc(C)n(-c2ccc(-c3ccc(F)c(C#N)c3)cc2C(=O)N2Cc3ccccc3C[C@H]2CO)n1 [Example 32] | 0.41 to 0.465 | 0.359 to 0.375
20 | CCCCN(CCCC)C(=O)c1cc(C)n(-c2ccc(-c3ccc(NC(C)=O)cc3)cc2C(=O)N2Cc3ccccc3C[C@H]2CO)n1 [Example 33] | 0.455 to 0.553 | 0.339 to 0.434
21 | CCCCN(CCCC)C(=O)c1cc(C)n(-c2ccc(-c3ccc(Cl)c(C(N)=O)c3)cc2C(=O)N2Cc3ccccc3C[C@H]2CO)n1 [Example 34] | 0.6 to 0.623 | 0.426 to 0.429
22 | CCCCN(CCCC)C(=O)c1cc(C)n(-c2ccc(-c3ccc(Cl)c(C(=O)NC)c3)cc2C(=O)N2Cc3ccccc3C[C@H]2CO)n1 [Example 35] | 0.515 to 0.547 | 0.357 to 0.366
23 | CCCCN(CCCC)C(=O)c1cc(C)n(-c2ccc(-c3cccc(OC(F)(F)F)c3)cc2C(=O)N2Cc3ccccc3C[C@H]2CO)n1 [Example 36] | 0.837 to 0.848 | 0.741 to 0.759
24 | CCCCN(CCCC)C(=O)c1cc(C)n(-c2ccc(-c3ccc(C(=O)NCC)c(F)c3)cc2C(=O)N2Cc3ccccc3C[C@H]2CO)n1 [Example 37] | 0.312 to 0.319 | 0.239 to 0.24
25 | CCCCN(CCCC)C(=O)c1cc(C)n(-c2ccc(-c3cccc(S(C)(=O)=O)c3)cc2C(=O)N2Cc3ccccc3C[C@H]2CO)n1 [Example 38] | 0.885 to 0.891 | 0.632 to 0.656

Second part, the compound after the results:

Row | IC50 [1] [µM] | IC50 [2] [µM] | Compound
26 | 4.36 to 4.62 | 3.15 to 3.3 | CCCCN(CCCC)C(=O)c1cc(C)n(-c2ccc(N3CCN(c4ccccc4)CC3=O)cc2C(=O)N2Cc3ccccc3C[C@H]2CO)n1 [Example 2, (S)—N,N-dibutyl-1-(2-(3-(hydroxymethyl)-1,2,3,4-tetrahydroisoquinoline-2-carbonyl)-4-(2-oxo-4-phenylpiperazin-1-yl)phenyl)-5-methyl-1H-pyrazole-3-carboxamide]
27 | 0.11 to 0.119 | 0.0866 to 0.091 | CCCCN(CCCC)C(=O)c1cc(C)n(-c2ccc(-c3cccc(C(=O)O)c3)cc2C(=O)N2Cc3ccccc3C[C@H]2CO)n1 [Example 4, (S)-4′-(3-(dibutylcarbamoyl)-5-methyl-1H-pyrazol-1-yl)-3′-(3-(hydroxymethyl)-1,2,3,4-tetrahydroisoquinoline-2-carbonyl)-[1,1′-biphenyl]-3-carboxylic acid]
28 | 0.745 to 0.75 | 0.767 to 0.786 | CCCCN(CCCC)C(=O)c1nn(-c2ccc(-c3ccc(N(C)C)nc3)cc2C(=O)N2Cc3ccccc3C[C@H]2CO)c(C)c1Cl [Example 8]
29 | 0.773 to 0.905 | 0.703 to 0.902 | CCCCN(CCCC)C(=O)c1nn(-c2ccc(-c3ccncc3OC)cc2C(=O)N2Cc3ccccc3C[C@H]2CO)c(C)c1Cl [Example 9]
30 | 0.127 to 0.148 | 0.103 to 0.115 | CCCCN(CCCC)C(=O)c1nn(-c2ccc(-c3cnn(Cc4ccccc4)c3)cc2C(=O)N2Cc3ccccc3C[C@H]2CO)c(C)c1Cl [Example 12]
31 | 0.133 to 0.165 | 0.105 to 0.129 | CCCCN(CCCC)C(=O)c1cc(C)n(-c2ccc(-c3ccc(C(=O)O)cc3)cc2C(=O)N2Cc3ccccc3C[C@H]2CO)n1 [Example 13]
32 | 0.277 to 0.315 | 0.189 to 0.213 | CCCCN(CCCC)C(=O)c1nn(-c2ccc(-c3cn[nH]c3)cc2C(=O)N2Cc3ccccc3C[C@H]2CO)c(C)c1Cl [Example 14]
33 | 0.136 to 0.143 | 0.119 to 0.137 | CCCCN(CCCC)C(=O)c1cc(C)n(-c2ccc(N3CCN(Cc4ccccc4)C(=O)C3)cc2C(=O)N2Cc3ccccc3C[C@H]2CO)n1 [Example 20]
34 | 0.18 to 0.202 | 0.179 to 0.19 | CCCCN(CCCC)C(=O)c1cc(C)n(-c2ccc(N3CCN(Cc4ccccc4Cl)C(=O)C3)cc2C(=O)N2Cc3ccccc3C[C@H]2CO)n1 [Example 21]
35 | 0.202 to 0.231 | 0.22 to 0.272 | CCCCN(CCCC)C(=O)c1cc(C)n(-c2ccc(N3CCN(Cc4ccccc4)CC3)cc2C(=O)N2Cc3ccccc3C[C@H]2CO)n1 [Example 22]
36 | 0.744 to 0.783 | 0.52 to 0.599 | CCCCN(CCCC)C(=O)c1cc(C)n(-c2ccc(-c3cccc(Cl)c3)cc2C(=O)N2Cc3ccccc3C[C@H]2CO)n1 [Example 27]
37 | 0.919 to 1.07 | 0.802 to 0.913 | CCCCN(CCCC)C(=O)c1cc(C)n(-c2ccc(-c3ccc(F)c(C)c3)cc2C(=O)N2Cc3ccccc3C[C@H]2CO)n1 [Example 28]
38 | 0.177 to 0.178 | 0.14 to 0.142 | CCCCN(CCCC)C(=O)c1cc(C)n(-c2ccc(-c3cnc4ccccc4c3)cc2C(=O)N2Cc3ccccc3C[C@H]2CO)n1 [Example 31]
